Source: US20240018153A1, “BENZENESULFONAMIDE DERIVATIVES AND USES THEREOF” (2692372 ONTARIO, INC., priority 2020, published 2024)

Key:
BTK [1] = biological target: T1, BTK (Homo sapiens (Human), UniProt Q06187); experiment: HTRF KinEASE-TK kinase assay, BTK; assay type: biochemical; settings: 3 h preincubation; for remaining activity at 1 µM: 1 μM compound, read-out: % BTK Remaining activity vs DMSO (1 μM, 3 h); for remaining activity at 10 µM: 10 μM compound, read-out: % BTK Remaining activity vs DMSO (10 μM, 3 h); for IC50: dose response, read-out: BTK Inhibition IC50
Procedure, shortened: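 BTK activity in HTRF KinEASE-TK format, buffer containing 10 mM MnCl2, 5 mM MgCl2, 1 uM ATPγS and 1 mM TCEP; 45 min reaction with biotinylated substrate and ATP.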

BTK [2] = biological target: T1, BTK; experiment: Ramos RA1 cell lysis and immunoassay, total BTK degradation; assay type: cell-based; parameters: key to % BTK degradation (RAMOS, 24 h): Y: BTK bound in cells and BTK degradation occurred; concentration or dose not given beside the values; settings: RAMOS cells
Procedure, shortened: (§1)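 Ramos RA1 cells treated with compound or DMSO for 24 h at 37° C., lysed in RIPA, analysed by Simple Western. Total BTK normalised to β-actin, pBTK (Y223) to total-protein reagent; both expressed relative to DMSO control.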

FGFR4 = FGFR4 (Homo sapiens (Human), UniProt P22455); experiment: HTRF KinEASE-TK kinase assay, FGFR4; assay type: biochemical; settings: for IC50: dose response; for remaining activity at 1 µM: read-out: % FGFR4 Remaining activity vs DMSO (1 μM, 3 h); for remaining activity at 10 µM: read-out: % FGFR4 Remaining activity vs DMSO (10 μM, 3 h)
Procedure, shortened: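 Promega FGFR4 at 0.333 ng/ul (5.12 nM) preincubated with or without inhibitor for 3 h at room temperature, then reaction started with biotinylated substrate and ATP. Stopped with EDTA detection buffer containing 31.25 nM SA-XL665 and Eu-antibody; after 60 min, HTRF 665/620 nm ratio read as substrate phosphorylation.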

BMX = BMX (Homo sapiens (Human), UniProt P51813); experiment: HTRF KinEASE-TK kinase assay, BMX; assay type: biochemical; settings: for remaining activity at 1 µM: 1 uM compound; for remaining activity at 1 µM / remaining activity at 10 µM: 3 h preincubation; for remaining activity at 10 µM: 10 uM compound; for IC50: dose response
Procedure, shortened: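 Purchased BMX (0.333 ng/ul, 3.03 nM) was preincubated with or without inhibitor for 3 h at room temperature, then biotinylated substrate and ATP were added. Reactions were stopped with EDTA-containing buffer holding 31.25 nM SA-XL665 and Eu-antibody, and after 60 min phosphorylation was read as the HTRF 665/620 nm emission ratio.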

JAK3 = JAK3 (Homo sapiens (Human), UniProt P52333); experiment: HTRF KinEASE-TK kinase assay, JAK3; assay type: biochemical; settings: for remaining activity at 1 µM: read-out: % JAK3 Remaining activity vs DMSO (1 μM, 3 h); for remaining activity at 10 µM: read-out: % JAK3 Remaining activity vs DMSO (10 μM, 3 h)
Procedure, shortened: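 Promega JAK3 at 0.21 nM was preincubated with inhibitor for 3 h at room temperature before biotinylated substrate and ATP were added. The reaction was stopped with EDTA detection buffer containing 31.25 nM SA-XL665 and Eu-antibody. After 60 min, the HTRF 665/620 nm emission ratio reflected substrate phosphorylation.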

EGFR = EGFR (Homo sapiens (Human), UniProt P00533); experiment: HTRF KinEASE-TK kinase assay, EGFR; assay type: biochemical; settings: 3 h preincubation; for remaining activity at 1 µM: 1 μM compound, read-out: % EGFR Remaining activity vs DMSO (1 μM, 3 h); for remaining activity at 10 µM: 10 μM compound, read-out: % EGFR Remaining activity vs DMSO (10 μM, 3 h); for IC50: dose response, read-out: EGFR Inhibition IC50
Procedure, shortened: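 HTRF KinEASE-TK format: EGFR pre-incubated with compound at 1 and 10 uM final (0.5% DMSO) in kinase buffer with 2 mM MnCl2, 5 mM MgCl2 and 1 mM TCEP.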

BTK [3] = biological target: T1, BTK; experiment: Ramos RA1 cell lysis and immunoassay, phospho-BTK (Y223) inhibition; assay type: cell-based; parameters: key: X: BTK bound and autophosphoration of BTK inhibited in cells; settings: RAMOS cells, compound concentration 1 μM
Procedure, shortened: as §1

Chain of EGFR (P00533 25-1210): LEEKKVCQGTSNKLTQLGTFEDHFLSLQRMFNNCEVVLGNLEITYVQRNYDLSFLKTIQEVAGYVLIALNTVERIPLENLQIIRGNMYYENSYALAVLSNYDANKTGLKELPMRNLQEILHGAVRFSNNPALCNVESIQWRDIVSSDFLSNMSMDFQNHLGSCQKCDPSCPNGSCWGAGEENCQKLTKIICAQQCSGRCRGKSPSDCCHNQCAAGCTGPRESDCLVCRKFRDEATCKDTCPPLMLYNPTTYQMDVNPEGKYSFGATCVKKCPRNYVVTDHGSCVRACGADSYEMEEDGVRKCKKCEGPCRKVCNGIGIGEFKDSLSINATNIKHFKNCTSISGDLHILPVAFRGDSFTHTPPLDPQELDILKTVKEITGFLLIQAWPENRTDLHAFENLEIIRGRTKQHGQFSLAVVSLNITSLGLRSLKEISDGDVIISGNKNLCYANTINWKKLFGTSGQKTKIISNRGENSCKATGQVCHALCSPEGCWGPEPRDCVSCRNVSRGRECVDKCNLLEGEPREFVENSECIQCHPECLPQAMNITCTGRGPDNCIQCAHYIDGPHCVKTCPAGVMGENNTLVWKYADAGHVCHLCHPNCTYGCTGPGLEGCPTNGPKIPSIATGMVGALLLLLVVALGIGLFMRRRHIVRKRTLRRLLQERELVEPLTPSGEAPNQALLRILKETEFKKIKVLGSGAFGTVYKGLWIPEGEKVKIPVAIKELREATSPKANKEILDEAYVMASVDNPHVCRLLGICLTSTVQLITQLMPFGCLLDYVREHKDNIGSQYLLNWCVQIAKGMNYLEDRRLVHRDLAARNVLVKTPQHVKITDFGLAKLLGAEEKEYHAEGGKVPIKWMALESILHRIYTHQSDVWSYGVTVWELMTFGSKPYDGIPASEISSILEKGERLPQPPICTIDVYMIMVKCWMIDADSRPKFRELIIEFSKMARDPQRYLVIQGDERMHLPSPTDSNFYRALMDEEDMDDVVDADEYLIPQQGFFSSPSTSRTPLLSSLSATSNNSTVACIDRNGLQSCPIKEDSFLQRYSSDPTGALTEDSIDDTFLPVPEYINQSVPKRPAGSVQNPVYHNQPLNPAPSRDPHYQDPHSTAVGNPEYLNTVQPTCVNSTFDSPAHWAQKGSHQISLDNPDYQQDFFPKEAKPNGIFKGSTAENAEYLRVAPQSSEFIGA
Chain of FGFR4 (P22455 22-802): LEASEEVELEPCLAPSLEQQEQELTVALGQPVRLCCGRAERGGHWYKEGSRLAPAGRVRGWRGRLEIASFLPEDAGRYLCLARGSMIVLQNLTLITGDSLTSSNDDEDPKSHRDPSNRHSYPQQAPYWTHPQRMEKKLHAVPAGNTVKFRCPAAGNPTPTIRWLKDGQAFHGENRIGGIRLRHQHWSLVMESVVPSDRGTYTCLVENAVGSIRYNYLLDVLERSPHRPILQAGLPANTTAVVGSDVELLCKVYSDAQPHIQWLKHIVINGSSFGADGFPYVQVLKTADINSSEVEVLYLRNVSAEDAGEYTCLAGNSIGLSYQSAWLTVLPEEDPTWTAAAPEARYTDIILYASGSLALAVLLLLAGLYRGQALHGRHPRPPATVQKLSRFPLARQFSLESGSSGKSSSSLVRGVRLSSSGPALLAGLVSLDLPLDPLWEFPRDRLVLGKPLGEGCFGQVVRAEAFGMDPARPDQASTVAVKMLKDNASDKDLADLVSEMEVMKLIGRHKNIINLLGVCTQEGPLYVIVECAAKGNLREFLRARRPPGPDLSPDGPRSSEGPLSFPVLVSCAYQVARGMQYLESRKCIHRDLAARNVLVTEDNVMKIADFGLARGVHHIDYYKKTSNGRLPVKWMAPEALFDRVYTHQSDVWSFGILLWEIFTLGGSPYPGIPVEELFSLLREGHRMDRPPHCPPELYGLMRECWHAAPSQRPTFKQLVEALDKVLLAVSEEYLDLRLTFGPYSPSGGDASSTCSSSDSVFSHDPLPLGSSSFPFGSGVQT
Chain of JAK3 (P52333 781-1124): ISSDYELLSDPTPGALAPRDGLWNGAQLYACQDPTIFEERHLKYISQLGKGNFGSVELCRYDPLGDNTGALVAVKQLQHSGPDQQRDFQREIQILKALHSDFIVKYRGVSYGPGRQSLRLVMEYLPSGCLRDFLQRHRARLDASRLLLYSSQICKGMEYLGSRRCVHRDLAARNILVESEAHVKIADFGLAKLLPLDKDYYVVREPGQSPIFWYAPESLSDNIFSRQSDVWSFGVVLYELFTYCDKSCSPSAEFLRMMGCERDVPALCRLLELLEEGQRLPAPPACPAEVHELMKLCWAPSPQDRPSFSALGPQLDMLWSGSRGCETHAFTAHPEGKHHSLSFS
Chain of BMX (P51813 whole entry): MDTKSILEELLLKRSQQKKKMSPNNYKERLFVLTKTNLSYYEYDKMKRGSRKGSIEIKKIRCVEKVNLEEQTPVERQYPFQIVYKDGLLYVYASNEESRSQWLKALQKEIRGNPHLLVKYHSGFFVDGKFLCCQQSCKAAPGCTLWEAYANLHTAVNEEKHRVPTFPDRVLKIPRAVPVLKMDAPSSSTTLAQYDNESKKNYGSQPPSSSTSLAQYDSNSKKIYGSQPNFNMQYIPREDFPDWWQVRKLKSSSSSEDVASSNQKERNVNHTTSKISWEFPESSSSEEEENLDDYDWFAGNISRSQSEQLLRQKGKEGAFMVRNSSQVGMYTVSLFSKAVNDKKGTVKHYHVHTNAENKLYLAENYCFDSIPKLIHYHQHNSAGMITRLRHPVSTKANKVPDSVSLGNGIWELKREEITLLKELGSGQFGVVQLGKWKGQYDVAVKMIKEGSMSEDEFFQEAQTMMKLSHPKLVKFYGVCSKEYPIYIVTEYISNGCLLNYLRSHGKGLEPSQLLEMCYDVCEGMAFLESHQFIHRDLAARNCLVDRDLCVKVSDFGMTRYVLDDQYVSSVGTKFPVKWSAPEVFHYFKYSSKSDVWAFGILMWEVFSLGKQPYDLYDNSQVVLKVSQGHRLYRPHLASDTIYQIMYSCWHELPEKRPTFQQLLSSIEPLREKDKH
T1 sequence (Q06187 whole entry): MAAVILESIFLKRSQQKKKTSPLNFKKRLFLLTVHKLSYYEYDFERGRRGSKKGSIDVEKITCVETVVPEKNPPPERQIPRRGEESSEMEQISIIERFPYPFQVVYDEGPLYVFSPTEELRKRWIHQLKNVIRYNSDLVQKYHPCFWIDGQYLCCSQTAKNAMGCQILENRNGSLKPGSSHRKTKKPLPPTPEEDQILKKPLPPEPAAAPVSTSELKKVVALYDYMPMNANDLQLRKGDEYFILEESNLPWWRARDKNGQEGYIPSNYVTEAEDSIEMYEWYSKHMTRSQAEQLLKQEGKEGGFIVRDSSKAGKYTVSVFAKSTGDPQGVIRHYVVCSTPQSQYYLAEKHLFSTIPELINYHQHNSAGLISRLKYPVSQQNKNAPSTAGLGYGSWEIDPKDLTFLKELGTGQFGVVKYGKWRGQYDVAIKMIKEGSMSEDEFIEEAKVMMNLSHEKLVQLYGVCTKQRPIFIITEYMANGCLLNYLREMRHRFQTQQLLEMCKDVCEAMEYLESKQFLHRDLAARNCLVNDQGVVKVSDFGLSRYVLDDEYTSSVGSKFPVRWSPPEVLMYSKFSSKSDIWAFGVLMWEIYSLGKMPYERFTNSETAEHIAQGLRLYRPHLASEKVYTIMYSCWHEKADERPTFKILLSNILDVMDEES

SMILES | remaining activity at 1 µM (BTK [1]) [%] | remaining activity at 10 µM (BTK [1]) [%] | IC50 (BTK [1]) [nM] | % BTK degradation (RAMOS, 24 h) (BTK [2]) | IC50 (FGFR4) [nM] | remaining activity at 1 µM (FGFR4) [%] | remaining activity at 10 µM (FGFR4) [%] | remaining activity at 1 µM (BMX) [%] | remaining activity at 10 µM (BMX) [%] | IC50 (BMX) [nM] | remaining activity at 1 µM (JAK3) [%] | remaining activity at 10 µM (JAK3) [%] | remaining activity at 1 µM (EGFR) [%] | remaining activity at 10 µM (EGFR) [%] | pBTK inhibition (RAMOS, 24 h) (BTK [3]) | IC50 (EGFR) [nM] | IC50 (JAK3; dose response) [nM]
C[S+]([O-])c1c(F)c(F)c(F)c(F)c1C(=O)N1CCC[C@@H](n2nc(-c3ccc(Oc4ccccc4)cc3)c3c(N)ncnc32)C1 (stereo partly drawn) [Compound I-36, ((R)-3-(4-amino-3-(4-phenoxyphenyl)-1H-pyrazolo[3,4-d]pyrimidin-1-yl)piperidin-1-yl)(2,3,4,5-tetrafluoro-6-(methylsulfinyl)phenyl)methanone] | < 50 | < 50 | < 1000 | Y | – | > 90 | < 50 | < 50 | < 50 | – | > 90 | 50 to 90 | > 90 | > 90 | X | – | –
CN(C)S(=O)(=O)c1c(F)c(F)c(F)c(F)c1C(=O)NCCn1nc(-c2ccc(Oc3ccccc3)cc2)c2c(N)ncnc21 [Compound I-40, N-(2-(4-amino-3-(4-phenoxyphenyl)-1H-pyrazolo[3,4-d]pyrimidin-1-yl)ethyl)-2-(N,N-dimethylsulfamoyl)-3,4,5,6-tetrafluorobenzamide] | < 50 | < 50 | < 1000 | Y | – | 50 to 90 | < 50 | < 50 | < 50 | – | > 90 | 50 to 90 | < 50 | < 50 | X | – | –
CN(C)S(=O)(=O)c1c(F)c(F)c(F)c(F)c1C(=O)NCCCn1nc(-c2ccc(Oc3ccccc3)cc2)c2c(N)ncnc21 [Compound I-41, N-(3-(4-amino-3-(4-phenoxyphenyl)-1H-pyrazolo[3,4-d]pyrimidin-1-yl)propyl)-2-(N,N-dimethylsulfamoyl)-3,4,5,6-tetrafluorobenzamide] | < 50 | < 50 | – | Y | – | 50 to 90 | < 50 | < 50 | < 50 | < 1000 | > 90 | > 90 | < 50 | < 50 | X | – | –
Nc1ncnc2c1c(-c1ccc(Oc3ccccc3)cc1)nn2CCNC(=O)c1c(F)c(F)c(F)c(F)c1S(N)(=O)=O [Compound I-42, N-(2-(4-amino-3-(4-phenoxyphenyl)-1H-pyrazolo[3,4-d]pyrimidin-1-yl)ethyl)-2,3,4,5-tetrafluoro-6-sulfamoylbenzamide] | < 50 | 50 to 90 | < 1000 | Y | – | 50 to 90 | 50 to 90 | < 50 | < 50 | < 1000 | > 90 | 50 to 90 | 50 to 90 | < 50 | X | – | –
CS(=O)(=O)c1c(F)c(F)c(F)c(F)c1CNCCNc1ncnc2[nH]ccc12 [Compound I-50, N^1-(7H-pyrrolo[2,3-d]pyrimidin-4-yl)-N2-(2,3,4,5-tetrafluoro-6-(methylsulfonyl)benzyl) ethane-1,2-diamine] | < 50 | < 50 | < 1000 | Y | – | > 90 | 50 to 90 | < 50 | < 50 | < 1000 | < 50 | < 50 | > 90 | 50 to 90 | X | – | > 1000
COCCOc1ccc(Nc2ncc(F)c(Nc3cccc(NC(=O)c4c(F)c(F)c(F)c(F)c4S(=O)(=O)N(C)C)c3)n2)cc1 [Compound I-59, 2-(N,N-dimethylsulfamoyl)-3,4,5,6-tetrafluoro-N-(3-((5-fluoro-2-((4-(2-methoxyethoxy)phenyl)amino)pyrimidin-4-yl)amino)phenyl)benzamide] | < 50 | < 50 | – | Y | < 1000 | < 50 | < 50 | < 50 | < 50 | – | 50 to 90 | 50 to 90 | > 90 | > 90 | X | – | –

Other lines, results leading:

remaining activity at 1 µM (BTK [1]) [%] | remaining activity at 10 µM (BTK [1]) [%] | IC50 (BTK [1]) [nM] | % BTK degradation (RAMOS, 24 h) (BTK [2]) | IC50 (FGFR4) [nM] | remaining activity at 1 µM (FGFR4) [%] | remaining activity at 10 µM (FGFR4) [%] | remaining activity at 1 µM (BMX) [%] | remaining activity at 10 µM (BMX) [%] | IC50 (BMX) [nM] | remaining activity at 1 µM (JAK3) [%] | remaining activity at 10 µM (JAK3) [%] | remaining activity at 1 µM (EGFR) [%] | remaining activity at 10 µM (EGFR) [%] | pBTK inhibition (RAMOS, 24 h) (BTK [3]) | IC50 (EGFR) [nM] | IC50 (JAK3; dose response) [nM] | SMILES
< 50 | < 50 | < 1000 | Y | < 1000 | < 50 | < 50 | < 50 | < 50 | < 1000 | 50 to 90 | < 50 | < 50 | < 50 | X | – | – | Nc1ncnc2c1c(-c1ccc(Oc3ccccc3)cc1)nn2CCCNC(=O)c1c(F)c(F)c(F)c(F)c1S(N)(=O)=O [Compound I-34, N-(3-(4-amino-3-(4-phenoxyphenyl)-1H-pyrazolo[3,4-d]pyrimidin-1-yl)propyl)-2,3,4,5-tetrafluoro-6-sulfamoylbenzamide]
< 50 | < 50 | < 1000 | Y | – | < 50 | < 50 | < 50 | < 50 | < 1000 | > 90 | < 50 | < 50 | < 50 | X | > 1000 | – | CS(=O)(=O)c1c(F)c(F)c(F)c(F)c1C(=O)NCCn1nc(-c2ccc(Oc3ccccc3)cc2)c2c(N)ncnc21 [Compound I-38, N-(2-(4-amino-3-(4-phenoxyphenyl)-1H-pyrazolo[3,4-d]pyrimidin-1-yl)ethyl)-2,3,4,5-tetrafluoro-6-(methylsulfonyl)benzamide]
< 50 | < 50 | – | Y | < 1000 | < 50 | < 50 | < 50 | < 50 | – | 50 to 90 | < 50 | < 50 | < 50 | X | < 1000 | – | CS(=O)(=O)c1c(F)c(F)c(F)c(F)c1C(=O)NCCCn1nc(-c2ccc(Oc3ccccc3)cc2)c2c(N)ncnc21 [Compound I-39, N-(3-(4-amino-3-(4-phenoxyphenyl)-1H-pyrazolo[3,4-d]pyrimidin-1-yl)propyl)-2,3,4,5-tetrafluoro-6-(methylsulfonyl)benzamide]
